According to patent US7279336B2, “Methods and compositions for enhanced plant cell transformation” (priority 2002, dated 2007):

Legend:
[1] = test system: immature zygotic embryos of the maize hybrid line Hi II; test: Agrobacterium tumefaciens (EHA101, standard binary vector pTF102) transformation of maize Hi II immature zygotic embryos
Description: A. tumefaciens strain EHA101 (Hood et al., 1986) containing the standard binary vector pTF102 (12.1 kb) was used in all experiments. […] This vector system, pTF 102 in EHA 101, was maintained on yeast extract peptone (YEP) medium (An et al., 1988) containing 100 mg/L spectinomycin (for pTF102) and 50 mg/L kanamycin (for EHA101). Bacteria cultures for weekly experiments were initiated from stock plates that were stored for up to 1 month at 4° C. before being refreshed from long-term, 80° C. glycerol stocks. In all experiments, bacteria cell densities were adjusted to an optical density (OD550) between 0.35 to 0.45 using a spectrophotometer immediately before embryo infection.
F2 immature zygotic embryos (1.5-2.0 mm) of the maize (Zea mays) Hi II hybrid genotype (Armstrong et al., 1991) were aseptically dissected from greenhouse-grown ears harvested 10 to 13 d post pollination. Ears were stored up to 3 d at 4° C. before dissection.
Infection, cocultivation, resting, and selection media were after Zhao et al. (1999) except that cocultivation medium was modified to contain Cys. All these media contained N6 salts and vitamins (Chu et al., 1975), 1.5 mg/L 2,4-dichlorophenoxyacetic acid, and 0.7 g L1 L-Pro in addition to the following ingredients: infection medium contained 68.4 g/L Suc and 36 g/L Glc (pH 5.2) and was supplemented with 100 μM AS (Sigma, St. Louis) before use; cocultivation medium contained 30 g/L Suc, 0.85 mg/L silver nitrate, 100 μM AS, and 3 g/L gelrite (pH 5.8); resting medium contained 30 g/L Suc, 0.5 g/L MES, 0.85 mg/L silver nitrate, 250 mg/L cefotaxime, and 8 g/L purified agar (pH 5.8). Selection medium was identical to resting medium with the addition of 1.5 or 3 mg/L bialaphos (Shinyo Sanyo, Tokyo). Infection medium was filter sterilized, whereas all other media were autoclaved. AS stock solutions (100 mM) were prepared by dissolving AS in 100% (v/v) dimethyl sulfoxide (DMSO) to make a 200 mM stock which was then diluted (1:1 [v/v]) with sterile water and stored in small aliquots at 20° C. Cys was added to cocultivation medium after autoclaving from freshly prepared, filter-sterilized stocks (100 mg/mL) and cocultivation medium was used within 2 to 5 d of preparation. Regeneration I medium contained Murashige and Skoog salts and vitamins (Murashige and Skoog, 1962), 60 g/L Suc, 100 mg/L myo-inositol, no hormones, and 3 g/L gelrite (pH 5.8) after Armstrong and Green (1985). Cefotaxime (250 mg/L) and bialaphos (3 mg/L) were added to this medium after autoclaving. Regeneration II medium differed from medium I in that it contained 30 g/L Suc and no bialaphos.

Japonica rice explants = settings: 80 mg/L Cys; cited from earlier work
maize immature embryos = test: Maize transformation experiments with control or histone H2A-1 T-DNA binary vector, with or without anti-oxidant; format: cell-based
Text: 2. Kan Wang at the Plant Transformation Facility, Iowa State University tested for the present invention in two different Agrobacterium strains. One contains a T-DNA binary vector with a herbicide resistance gene in the T-DNA (this is the control construction)1. The other strain contains a similar T-DAN binary vector, but in addition to the herbicide resistance gene the T-DNA contains the Arabidopsis histone H2A-1 cDNA under the control of maize adh1 promoter and intron. These strains were used in four rounds of maize transformation experiments. […] Several thousand transformations (using the control vector without the histone gene) produced virtually no transformants. In these experiments, there were no transformants (using the control strain) without L-cysteine.

Q: For `N[C@@H](CS)C(=O)O` [L-cysteine], which “T-DNA delivery to embryogenic-competent scutellum cells of infected embryos” value ([1]; 400 mg/L Cys in cocultivation medium) is on record?
A: Its value is “increased”.

Q: What about the stable transformation rates ([1]; Cys as low as 100 mg/L, compared with 400 mg/L, better embryo recovery) of the same compound?
A: The stable transformation rates was “Comparable”.

Q: What about the “transient glucuronidase expression in targeted cells” value ([1]; L-cysteine in cocultivation medium, 400 mg/L) of the same compound?
A: Its value is “improvement”.

Q: And the “embryo response after cocultivation” value ([1]; L-cysteine in cocultivation medium, 400 mg/L vs 0 mg/L)?
A: The value was “decrease”.

Q: And the impact on embryogenesis (Japonica rice explants)?
A: The impact on embryogenesis was “negative impact”.

Q: What about the “infected immature embryos giving transformants” value (maize immature embryos; control vector without histone gene, with L-cysteine, no transformants without L-cysteine) of the same compound?
A: Its value is 2-3%.

Q: What about the transformation (maize immature embryos; histone gene vector and L-cysteine) of the same compound?
A: The transformation was 2-3%.
